{"source": "patent US9345704B2", "about": "“Materials and methods for suppressing and/or treating neurofibroma and related tumors” (Indiana University Research and Technology Corp., priority 2008, dated 2016)", "tested_on": "trigeminal plexiform neurofibroma", "test": "Compassionate use treatment with imatinib mesylate of a child presenting with a plexiform neurofibroma (MRI)", "format": "in vivo, human", "source_text": "Plexiform neurofibromas primarily present in infants and young children with NF1 are frequently characterized by rapid growth and invasion into adjacent organs often resulting in impairment of normal organ function. In addition, these tumors have a high likelihood of progressing to malignancy for which there is no cure.", "note": "Structures can show the parent of a compound that is named as a salt."}
{"smiles": "Cc1ccc(NC(=O)c2ccc(CN3CCN(C)CC3)cc2)cc1Nc1nccc(-c2cccnc2)n1", "note": "[imatinib mesylate, 4-(4-methylpiperazin-1-ylmethyl)-N-[4-methyl-3-(4-(pyridin-3-yl)pyrimidin-2-ylamino)phenyl]-benzamide]", "values": [{"measurement": "side effects", "setting": "NF1 patient, 350 mg/m2/dose, treatment for six months", "value": "no observed side effects"}, {"measurement": "tumor size (coronal MRI)", "setting": "before vs 6 months following treatment", "value": "profound decrease in tumor size"}, {"measurement": "upper airway (axial MRI)", "setting": "before vs after 6 months of treatment", "value": "marked improvement with airway enlargement"}, {"measurement": "recurrence of symptoms off treatment", "setting": "off treatment for six months after six months of treatment", "value": "without a recurrence of symptoms"}]}
